{"source": "patent US20060134243A1", "about": "“Method of using extracts of epimedium species” (Bionovo, Inc., priority 2004, published 2006)", "key": {"TNF-RE-tk-Luc": {"system": "TNF-RE-tk-Luc", "experiment": "Effect of antiestrogens on TNF-RE-tk-Luc (Example 2)", "assay_type": "cell-based, human", "settings": "for effect on the repression induced by E2: TNF-RE-tk-Luc; for activation of TNF-RE-tk-Luc: antiestrogens, in contrast to E2", "source_text": "(§1) Plasmid Construction. A PstI to AhaII fragment from the human TNF-α gene, pLT, was cloned upstream of the luciferase cDNA. […] ERβ mutants were created with QuikChange site-directed mutagenesis kits (Stratagene), by using oligonucleotides containing the mutation. The mutants were sequenced with Sequenase kits (Amersham Pharmacia) to verify the presence of the mutation.\n(§2) For experiments, cells were collected, transferred to a cuvette, and then electroporated with a Bio-Rad gene pulser as described previously using 3 μg of reporter plasmid and 1 μg of ERα or ERβ expression vectors. After electroporation, the cells were re-suspended in media and plated at 1 ml/dish in 12-well multiplates. […] The concentration of hormone required to produce a half-maximal induction (EC50) or inhibition (IC50) of luciferase activity was calculated with the Prism curve-fitting program (Graph Pad Software, version 2.0b). […] The cells were plated in duplicate at a density of 25,000 cells/35-mm plate in tissue culture medium containing 3% stripped fetal bovine serum. […] After 8 days the cells were counted with a Coulter counter."}, "ERβ [1]": {"biological_target": "T1, ERβ (Homo sapiens, UniProt Q92731)", "T1 construct": "expressed in transfected cells", "T1 sequence (Q92731 whole entry)": "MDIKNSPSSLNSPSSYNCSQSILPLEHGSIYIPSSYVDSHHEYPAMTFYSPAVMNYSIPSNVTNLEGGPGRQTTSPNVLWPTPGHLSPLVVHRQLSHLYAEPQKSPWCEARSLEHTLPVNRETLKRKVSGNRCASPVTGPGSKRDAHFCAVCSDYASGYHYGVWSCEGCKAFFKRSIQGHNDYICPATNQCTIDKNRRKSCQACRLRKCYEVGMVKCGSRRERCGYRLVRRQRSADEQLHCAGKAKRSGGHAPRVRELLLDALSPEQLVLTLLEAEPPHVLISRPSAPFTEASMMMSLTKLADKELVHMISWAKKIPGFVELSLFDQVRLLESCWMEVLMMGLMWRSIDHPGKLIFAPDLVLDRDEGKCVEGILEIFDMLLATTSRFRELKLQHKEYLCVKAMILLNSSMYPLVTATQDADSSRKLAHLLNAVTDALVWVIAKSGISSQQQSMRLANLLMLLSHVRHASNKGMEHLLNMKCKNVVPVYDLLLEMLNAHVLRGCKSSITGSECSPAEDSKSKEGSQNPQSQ", "experiment": "Repression of TNF-α activation of TNF-RE-tk-Luc with ERβ (Example 2)", "assay_type": "cell-based", "settings": "in the presence of ERβ", "source_text": "as §1, §2"}, "ERβ [2]": {"biological_target": "T1, ERβ", "experiment": "Repression of TNF-α activation of TNF-RE-tk-Luc in U2OS cells with transfected ERβ", "assay_type": "cell-based", "source_text": "as §1, §2\nThe extracts (a and b) were than decanted and only the soluble material was used."}, "breast cancer": {"system": "breast cancer", "settings": "among the 5129 women in the treatment group; median follow-up of 40 months; cited from earlier work"}, "[3]": {"system": "primary invasive breast cancer", "settings": "women at high risk for breast cancer; cited from earlier work"}, "[4]": {"system": "estrogen receptor-positive breast cancer", "settings": "five years of therapy; cited from earlier work"}}, "data": [{"smiles": "C[C@]12CC[C@@H]3c4ccc(O)cc4C[C@@H](CCCCCCCCC[S+]([O-])CCCC(F)(F)C(F)(F)F)[C@H]3[C@@H]1CC[C@@H]2O", "note": "(stereo partly drawn) [ICI 182,780]", "values": [{"measurement": "effect on the repression induced by E2", "setting": "TNF-RE-tk-Luc", "value": "abolished the repression induced by E2"}, {"measurement": "activation of TNF-RE-tk-Luc", "setting": "TNF-RE-tk-Luc", "value": 2, "unit": "fold"}]}, {"smiles": "C[C@]12CC[C@@H]3c4ccc(O)cc4CC[C@H]3[C@@H]1CC[C@@H]2O", "note": "[E2, estradiol]", "values": [{"measurement": "repression of TNF-α activation of TNF-RE-tk-Luc", "setting": "ERβ [1]", "value": "60-80%"}, {"measurement": "repression of TNF-α activation of TNF-RE", "setting": "ERβ [2]", "value": 100, "unit": "%"}]}, {"smiles": "O=C(c1ccc(OCCN2CCCCC2)cc1)c1c(-c2ccc(O)cc2)sc2cc(O)ccc12", "note": "[raloxifene]", "values": [{"measurement": "cases of breast cancer", "setting": "breast cancer", "value": 13}, {"measurement": "effect on the repression induced by E2", "setting": "TNF-RE-tk-Luc", "value": "abolished the repression induced by E2"}, {"measurement": "activation of TNF-RE-tk-Luc", "setting": "TNF-RE-tk-Luc", "value": 2, "unit": "fold"}]}, {"smiles": "CC/C(=C(\\c1ccccc1)c1ccc(OCCN(C)C)cc1)c1ccccc1", "note": "[tamoxifen]", "values": [{"measurement": "reduction of the risk of primary invasive breast cancer", "setting": "[3]", "value": 49, "unit": "%"}, {"measurement": "reduction of mortality from breast cancer", "setting": "[4]", "value": 22, "unit": "%"}, {"measurement": "reduction of the risk of recurrences", "setting": "[4]", "value": 42, "unit": "%"}, {"measurement": "effect on the repression induced by E2", "setting": "TNF-RE-tk-Luc", "value": "abolished the repression induced by E2"}, {"measurement": "activation of TNF-RE-tk-Luc", "setting": "TNF-RE-tk-Luc", "value": 2, "unit": "fold"}]}]}
